Results: paper PMC9820166, “Salicylate Sodium Suppresses Monocyte Chemoattractant Protein-1 Production by Directly Inhibiting Phosphodiesterase 3B in TNF-α-Stimulated Adipocytes” (International Journal of Molecular Sciences, 2022)

Columns and labels:
[1] = test system: MCP-1 production in TNF-α-stimulated 3T3-L1 pre-adipocytes; test: Supernatant MCP-1 (ELISA) in TNF-α-stimulated 3T3-L1 pre-adipocytes; format: cell-based, mouse
Experimental: (§1) The adipocytes were pretreated with SAS at different concentrations (0–5 mM) for 1 h and then stimulated with mouse TNF-α (40 ng/mL) at 37 °C for 24 h. The MCP-1 level in supernatant (for 3T3-L1 adipocytes) or subnatant (for primary adipocytes) was determined by ELISA according to the manufacturer’s instruction. The concentration of MCP-1 was calculated from the standard curve.

[2] = test system: MCP-1 production in TNF-α-stimulated 3T3-L1 mature adipocytes; test: Supernatant MCP-1 (ELISA) in TNF-α-stimulated 3T3-L1 mature adipocytes; format: cell-based, mouse; settings: SAS 0–5 mM pretreatment 1 h, TNF-α 40 ng/mL 24 h
Experimental: The 3T3-L1 pre-adipocytes were cultured and differentiated into mature adipocytes, as previously described, with slight modification. The cells were maintained in M1 medium (DMEM supplemented with 10% FBS, 1 mM sodium pyruvate, 4 mM glutamine and 1% penicillin-streptomycin solution) to reach confluence. Approximately 2 days later (termed day 0), the medium was replaced with M2 medium (M1 medium supplemented with 1.5 μg/mL insulin, 1 μM dexamethasone, 0.5 mM IBMX and 2 μM rosiglitazone). Two days later, the medium was then changed to M3 medium (M1 medium supplemented with 1.5 μg/mL insulin). Two days later, the medium was replaced with M2 for another 2 days. From day 6, the cells were maintained in M3 medium with a medium change every day. About 8–10 days later, a microscope could observe a lot of lipid droplets and the mature adipocytes were obtained.
as §1

p-p38 = test: Western blot of p-p38 in TNF-α-stimulated 3T3-L1 pre-adipocytes; format: cell-based, mouse; settings: TNF-α 40 ng/mL
Experimental: (§2) The 3T3-L1 pre-adipocytes ([…] per well in 6-well plates) were incubated with SAS for 1 h and then stimulated with mouse TNF-α (40 ng/mL) at 37 °C for indicated time. The total protein was extracted with the mammalian protein extraction kit. For western blot assay, equal amounts of protein samples (30 µg/lane) were separated by 10% sodium dodecyl sulphate-polyacrylamide gel electrophoresis (SDS-PAGE) and then transferred to PVDF membranes. Subsequently, the membranes were blocked with 5% non-fat milk powder in TBST (0.9 mM Tris, 9 mM Tris-HCl, 150 mM NaCl, 0.05% Tween-20) for 2 h at room temperature, and then incubated with various primary antibodies overnight at 4 °C. After being washed by TBST, the membranes were incubated with the corresponding secondary antibodies for 1 h at room temperature. After successive washes, the protein bands were detected using ECL luminescence reagent and photographed by the ChemiDoc XRS+ imaging system (Bio-Rad Technology, Hercules, California, America) or ChemiScope 6000 Exp (Clinx Science Instruments Co., Shanghai, China).

[3] = test system: MCP-1 production in TNF-α-stimulated mouse primary adipocytes; test: Subnatant MCP-1 (ELISA) in TNF-α-stimulated mouse primary adipocytes; format: cell-based; settings: SAS 0–5 mM pretreatment 1 h, TNF-α 40 ng/mL 24 h
Experimental: The mouse primary adipocytes were isolated from normal lean male C57BL/6N mice, as described previously, with modification. In brief, the mice were anesthetized by an intraperitoneal injection of 2,2,2-tribromoethanol (200 mg/kg) and sacrificed via a dislocated neck. The epididymal fat pads were removed, minced and digested by collagenase I (2 mg/mL in DMEM supplemented with 20 mg/mL BSA) at 37 °C for 1 h. The digested tissue was filtered, and the filtrate was centrifuged at 200× g for 5 min. Remove and discard the underlying pellet (containing pre-adipocytes, fibroblasts, and erythrocytes) and media. Re-suspend the remaining fat layer in 10 mL DMEM and centrifuge at 200× g for 5 min. Repeat this step two additional times. The floating top layer containing primary differentiated mature adipocytes was collected and cultured in DMEM supplemented with 10% fetal bovine serum (FBS).
as §1

MCP-1 mRNA stability = MCP-1 mRNA stability assay (actinomycin D); format: cell-based, mouse; settings: SAS 5 mM, TNF-α 40 ng/mL 2 h then actinomycin D 5 ug/mL
Experimental: The mRNA stability assay was performed as described previously with modification. The 3T3-L1 pre-adipocytes were stimulated with TNF-α (40 ng/mL) for 2 h, and then treated with actinomycin D (5 ug/mL). SAS (5 mM) was added at different time points (0, 0.5, 2, 4 h). The total RNA were harvested, and the MCP-1 mRNA levels were measured by RT-qPCR analysis.

recombinant human PDE3B = target: T1, recombinant human PDE3B (Homo sapiens, UniProt Q13370); test: PDE3B activity inhibition (PDE-Glo PDE assay kit); format: biochemical
T1 construct: purchased SignalChem Lifesciences Corporation
T1 sequence (Q13370 whole entry): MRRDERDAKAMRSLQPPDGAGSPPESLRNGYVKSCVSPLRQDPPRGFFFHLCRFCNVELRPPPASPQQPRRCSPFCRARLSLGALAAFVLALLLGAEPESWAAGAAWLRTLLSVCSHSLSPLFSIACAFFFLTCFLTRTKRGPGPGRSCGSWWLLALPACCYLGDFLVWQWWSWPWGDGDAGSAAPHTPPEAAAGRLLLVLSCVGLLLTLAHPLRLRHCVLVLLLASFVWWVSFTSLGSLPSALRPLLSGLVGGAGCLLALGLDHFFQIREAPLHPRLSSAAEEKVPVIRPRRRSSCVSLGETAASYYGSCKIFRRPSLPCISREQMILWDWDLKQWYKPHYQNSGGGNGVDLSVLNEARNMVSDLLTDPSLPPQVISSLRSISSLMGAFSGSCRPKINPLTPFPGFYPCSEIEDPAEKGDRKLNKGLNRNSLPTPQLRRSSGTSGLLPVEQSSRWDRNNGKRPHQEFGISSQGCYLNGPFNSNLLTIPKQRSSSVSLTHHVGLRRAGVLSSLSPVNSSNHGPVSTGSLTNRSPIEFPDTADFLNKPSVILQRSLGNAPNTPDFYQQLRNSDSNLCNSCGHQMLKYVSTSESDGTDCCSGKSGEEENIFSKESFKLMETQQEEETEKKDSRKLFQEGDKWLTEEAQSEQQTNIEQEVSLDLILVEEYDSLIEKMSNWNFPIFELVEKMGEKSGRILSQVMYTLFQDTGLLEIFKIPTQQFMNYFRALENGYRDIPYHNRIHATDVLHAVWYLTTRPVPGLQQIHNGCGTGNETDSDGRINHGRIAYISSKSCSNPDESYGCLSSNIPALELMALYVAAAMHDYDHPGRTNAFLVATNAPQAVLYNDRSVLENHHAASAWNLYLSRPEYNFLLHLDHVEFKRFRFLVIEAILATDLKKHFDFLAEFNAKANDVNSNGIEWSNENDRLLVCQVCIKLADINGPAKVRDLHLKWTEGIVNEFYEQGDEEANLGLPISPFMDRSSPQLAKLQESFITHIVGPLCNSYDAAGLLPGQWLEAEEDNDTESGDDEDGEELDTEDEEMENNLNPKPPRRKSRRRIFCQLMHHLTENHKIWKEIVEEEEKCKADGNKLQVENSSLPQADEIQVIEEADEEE
Text: (§3) (Fremont, CA, USA). […] All other reagents were of analytical grade.

MKP-1 = test: Western blot of MKP-1 expression in TNF-α-stimulated 3T3-L1 pre-adipocytes; format: cell-based, mouse; settings: 2 h after TNF-α stimulation
Experimental: as §2

[4] = test system: high-fat diet obese C57BL/6N mice; test: Recruitment of labeled circulating monocytes into adipose tissue of obese mice; format: in vivo, mouse; settings: 45 mg/kg/day subcutaneous for 4 days
Experimental: page 7: Figure S7. SAS impedes the recruitment of circulating monocytes into adipose tissue in vivo (n = 4). (A) The fluorescence intensity of monocytes in adipose tissue. Male C57BL/6N mice (18 g - 20 g) were fed with high-fat diet (HFD) for 18 weeks. The obtained obese mice (36 g - 40 g) with enough epididymal adipose tissues were subcutaneously injected with SAS (45 mg/kg/day) for 4 days. Circulating blood monocytes were labeled by intravenous injection of Fluoresbrite YG Carboxylate Microspheres. Three days later, the mice were euthanatized and adipose tissues around epididymis were collected, 1.5 g of adipose tissue was digested by collagenase I. The fluorescence value of digestive juice was read at λex 441 nm and λem 486 nm. **P < 0.01 vs. HFD alone. (B) The photograph of labeled monocytes in adipose tissues. The sectioned adipose tissue (about 0.5 g) for photograph by a laser confocal microscopy using a 20 × objective. Fluorescence-labeled monocytes were shown in green. SAS, salicylate sodium. (1 picture or pasted object on this page, not shown here)

human PDE4B = human PDE4B (Homo sapiens, UniProt Q07343); settings: read-out: IC50 PDE4B activity
human PDE4B, sequence (Q07343 whole entry): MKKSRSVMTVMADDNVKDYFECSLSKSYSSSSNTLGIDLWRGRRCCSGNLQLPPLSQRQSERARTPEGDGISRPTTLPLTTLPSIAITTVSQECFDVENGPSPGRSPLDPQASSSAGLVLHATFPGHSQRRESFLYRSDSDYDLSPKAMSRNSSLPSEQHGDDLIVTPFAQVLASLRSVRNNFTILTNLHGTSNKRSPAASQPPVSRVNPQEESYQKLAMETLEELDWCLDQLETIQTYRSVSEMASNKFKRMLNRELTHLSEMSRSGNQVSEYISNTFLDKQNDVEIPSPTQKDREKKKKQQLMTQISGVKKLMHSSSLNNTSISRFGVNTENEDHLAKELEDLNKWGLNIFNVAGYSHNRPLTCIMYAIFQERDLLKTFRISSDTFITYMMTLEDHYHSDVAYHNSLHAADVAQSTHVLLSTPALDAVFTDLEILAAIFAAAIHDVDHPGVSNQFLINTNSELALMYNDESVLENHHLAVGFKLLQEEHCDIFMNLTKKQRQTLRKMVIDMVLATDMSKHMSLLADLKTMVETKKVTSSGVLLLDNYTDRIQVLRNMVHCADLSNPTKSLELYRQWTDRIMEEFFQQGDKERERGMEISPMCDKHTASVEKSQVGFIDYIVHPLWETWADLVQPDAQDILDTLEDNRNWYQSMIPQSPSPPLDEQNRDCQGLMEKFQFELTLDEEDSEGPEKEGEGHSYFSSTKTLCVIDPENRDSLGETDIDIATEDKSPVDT

MCP-1 mRNA = MCP-1 mRNA level by RT-qPCR in TNF-α-stimulated 3T3-L1 pre-adipocytes; format: cell-based, mouse; settings: SAS 0–5 mM pretreatment 1 h, TNF-α 40 ng/mL 4 h
Experimental: The adipocytes were pretreated with SAS at different concentrations (0–5 mM) for 1 h and then stimulated with mouse TNF-α (40 ng/mL) at 37 °C for 4 h. The total mRNA was isolated from 3T3-L1 pre-adipocytes by Trizol reagent according to the manufacturer’s instruction. Reverse transcription reactions were conducted by using M-MuLV first strand cDNA synthesis kit. The RT-qPCR analyses were performed on a BIOER Fluorescent Quantitative Detection System (Bioer Technology, Hangzhou, China). The procedure condition was as follows: 95 °C for 30 s, 95 °C for 5 s with 40 cycles, and 62 °C for 30 s. The comparative Ct method (2^−ΔΔCt) was used to analyze the relative intensities. The primer sequences for MCP-1 were as follows: 5′-[…]-3′ (forward) and 5′-[…]-3′ (reverse). The primer sequences for β-actin were as follows: 5′-[…]-3′ (forward) and 5′-[…]-3′ (reverse).

PKA = test: Intracellular PKA activity (PepTag assay) in TNF-α-stimulated 3T3-L1 pre-adipocytes; format: cell-based, mouse; settings: SAS pretreatment 1 h, TNF-α 40 ng/mL 1 h
Experimental: The 3T3-L1 pre-adipocytes were pretreated with SAS for 1 h and then stimulated with TNF-α (40 ng/mL) for further 1 h. The cells were lysed by cold PKA extraction buffer [25 mM Tris-HCl (pH 7.4), 0.5 mM EDTA, 0.5 mM EGTA, 10 mM β-mercaptoethanol, 1 μg/mL leupetin, 1 μg/mL aprotinin and 0.5 mM PMSF] and centrifuged (5000× g) at 4 °C for 10 min. The supernatant was used immediately for PKA activity determination by using a PepTag assay for non-radioactive detection of PKA.

human PDE3A = target: T2, human PDE3A (Homo sapiens, UniProt Q14432); test: PDE3A activity inhibition; format: biochemical
T2 construct: purchased Sino Biological Inc
T2 sequence (Q14432 whole entry): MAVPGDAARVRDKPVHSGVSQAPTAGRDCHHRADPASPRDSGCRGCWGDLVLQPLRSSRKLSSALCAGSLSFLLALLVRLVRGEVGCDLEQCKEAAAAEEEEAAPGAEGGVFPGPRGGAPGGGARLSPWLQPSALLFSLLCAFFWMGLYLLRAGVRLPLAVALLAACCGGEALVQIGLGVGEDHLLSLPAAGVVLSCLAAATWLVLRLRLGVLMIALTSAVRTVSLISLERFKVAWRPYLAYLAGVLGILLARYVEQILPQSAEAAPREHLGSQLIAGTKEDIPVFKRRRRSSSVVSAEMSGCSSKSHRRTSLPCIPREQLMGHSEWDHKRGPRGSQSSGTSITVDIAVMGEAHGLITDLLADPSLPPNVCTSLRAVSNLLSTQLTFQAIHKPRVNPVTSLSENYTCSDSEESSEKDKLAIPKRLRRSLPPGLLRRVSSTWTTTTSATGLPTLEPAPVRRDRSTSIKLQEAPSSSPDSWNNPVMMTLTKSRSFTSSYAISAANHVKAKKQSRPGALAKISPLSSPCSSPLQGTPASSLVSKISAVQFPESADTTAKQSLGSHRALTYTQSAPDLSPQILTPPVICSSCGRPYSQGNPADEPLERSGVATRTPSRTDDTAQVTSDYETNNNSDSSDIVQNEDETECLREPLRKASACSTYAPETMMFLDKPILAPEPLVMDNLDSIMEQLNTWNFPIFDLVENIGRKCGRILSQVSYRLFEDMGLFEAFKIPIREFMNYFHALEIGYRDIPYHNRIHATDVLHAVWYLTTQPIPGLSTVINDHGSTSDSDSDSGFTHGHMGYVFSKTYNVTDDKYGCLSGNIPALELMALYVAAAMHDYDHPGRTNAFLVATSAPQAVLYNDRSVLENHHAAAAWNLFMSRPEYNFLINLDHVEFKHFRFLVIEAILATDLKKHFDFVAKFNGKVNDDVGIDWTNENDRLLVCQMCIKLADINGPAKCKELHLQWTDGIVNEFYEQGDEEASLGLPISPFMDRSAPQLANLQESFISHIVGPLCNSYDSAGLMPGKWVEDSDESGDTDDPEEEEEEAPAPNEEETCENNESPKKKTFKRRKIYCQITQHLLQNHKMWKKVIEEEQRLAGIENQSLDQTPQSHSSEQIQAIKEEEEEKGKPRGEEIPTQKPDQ
Text: as §3

p-ERK = test: Western blot of p-ERK in TNF-α-stimulated 3T3-L1 pre-adipocytes; format: cell-based, mouse; settings: TNF-α 40 ng/mL
Experimental: as §2

intracellular cAMP = test: Intracellular cAMP level (ELISA) in TNF-α-stimulated 3T3-L1 pre-adipocytes; format: cell-based, mouse; settings: SAS pretreatment 1 h, TNF-α 40 ng/mL 1 h
Experimental: To determine the time-course change of the TNF-α-induced intracellular cAMP, the 3T3-L1 pre-adipocytes were pretreated with or without SAS (5 mM) for 1 h and then exposed to TNF-α (40 ng/mL) for different time. The cells were lysed, and the changes of intracellular cAMP within 4 h were measured by using a commercial cAMP ELISA kit. To determine the concentration-effect of SAS on intracellular cAMP, 3T3-L1 pre-adipocytes were pretreated with SAS for 1 h at the indicated concentrations and then exposed to TNF-α (40 ng/mL) for further 1 h. The cells were lysed, and the intracellular cAMP level was measured by using a commercial cAMP ELISA kit. The protein concentration of each sample was determined using BCA assay, and the cAMP level of each sample was calculated according to the below formula:cAMP level (pmol/mg protein) = cAMP concentration (pmol/mL)/protein concentration (mg/mL)

[5] = 200 μM pretreatment 1 h, TNF-α 40 ng/mL 24 h

Compound: NC(=O)c1ncn([C@@H]2O[C@H](CO)[C@@H](O)[C@H]2O)c1N [AICAR]
- Effect on MCP-1 production ([1]; 100 μM pretreatment 1 h, TNF-α 40 ng/mL 24 h): did not decrease the MCP-1 production

Compound: c1cc(-c2cnn3cc(-c4ccc(OCCN5CCCCC5)cc4)cnc23)ccn1 [Compound C]
- Effect of AMPK inhibitor on the MCP-1-lowering effect of SAS ([1]; co-treatment with SAS, TNF-α-stimulated): could not antagonize the effect of SAS

Compound: O=S(=O)(NCCNC/C=C/c1ccc(Br)cc1)c1cccc2cnccc12 [H89]
- Effect of PKA antagonist on the MCP-1-lowering effect of SAS ([1]; 100 nM, with SAS, TNF-α-stimulated): abolished the effect of SAS on MCP-1

Compound: Nc1ncnc2c1ncn2[C@@H]1O[C@@H]2CO[P@@](O)(=S)O[C@H]2[C@H]1O [RP-cAMPS]
- Effect of cAMP antagonist on the MCP-1-lowering effect of SAS ([1]; 100 μM, with SAS, TNF-α-stimulated): abolished the effect of SAS on MCP-1

Compound: O=C(O)c1ccccc1O [SAS, salicylate sodium]
- Effect on MCP-1 production (supernatant) [2]: significantly decreased MCP-1 production
- Effect on p-p38 level (p-p38): concentration-dependently decrease the levels of p-ERK and p-p38
- Effect on MCP-1 production (subnatant) [3]: significantly decreased MCP-1 production
- Effect on MCP-1 mRNA stability (MCP-1 mRNA stability): did not affect the mRNA stability of MCP-1
- IC50 (recombinant human PDE3B): 13.8 mM
- Effect on MKP-1 expression (MKP-1): maintained the expression of MKP-1 at 2 h
- Recruitment of circulating monocytes into adipose tissue [4]: markedly prevented the recruitment of circulating monocytes into the adipose tissue
- Effect on MCP-1 production (supernatant) ([1]; 3T3-L1 pre-adipocytes, SAS 0–5 mM pretreatment 1 h, TNF-α 40 ng/mL 24 h): significantly decreased MCP-1 production
- Effect of SAS on MCP-1 in IKKβ-deficient cells ([1]; IKKβ siRNA knockdown 3T3-L1 pre-adipocytes): did not impact the effect of SAS on MCP-1
- Effect of SAS on MCP-1 in PDE3B-deficient cells ([1]; PDE3B siRNA knockdown 3T3-L1 pre-adipocytes vs scrambled siRNA): almost disappeared
- Concentration that impedes MCP-1 expression in adipocytes ([1]; in vitro, adipocytes (Figure 2)): 1.25 to 5 mM
- IC50 (human PDE4B): 0.81 mM
- Effect on MCP-1 mRNA level (MCP-1 mRNA): concentration-dependently decreased the MCP-1 mRNA level
- Effect on intracellular PKA activity (PKA): elevated the intracellular PKA activity
- IC50 (human PDE3A): 6 mM
- Effect on p-ERK level (p-ERK): concentration-dependently decrease the levels of p-ERK and p-p38
- Effect on TNF-α-caused reduction of intracellular cAMP (intracellular cAMP): could prevent this decrease in a concentration-dependent manner

Compound: CN(C(=O)CCCOc1ccc2[nH]c(=O)ccc2c1)C1CCCCC1 [cilostamide]
- Effect on MCP-1 production [1, 5]: suppressed the MCP-1 production

Compound: Cc1[nH]c(=O)c(C#N)cc1-c1ccncc1 [milrinone]
- Effect on MCP-1 production [1, 5]: suppressed the MCP-1 production
